Legend:
[1] = test system: brown rat VKORC1 strain Y139S; parameters: key to Practical resistance of the strain: X = Strain exhibits a practical resistance to:; conditions: cited from earlier work; for Tolerance / practical resistance (in words): strain Y139S (Wales); for Practical resistance of the strain: strain Y139S
[2] = test system: brown rat VKORC1 strain L120Q Berkshire; parameters: key: X = Strain exhibits a practical resistance to:; conditions: cited from earlier work
[3] = test system: brown rat (Rattus norvegicus) strain Y139S; conditions: determined on the basis of LD50; cited from earlier work
[4] = test system: brown rat VKORC1 strain Y139C; parameters: key to Practical resistance of the strain: X = Strain exhibits a practical resistance to:; conditions: cited from earlier work; for Sensitivity of animals with VKORC1 Tyr139Cys (in words): Y139C brown rats and house mice, difenacoum in rats only; for Practical resistance of the strain / Resistance in laboratory and field experiments (in words): strain Y139C
[5] = test system: brown rat VKORC1 strain L128Q; parameters: key: X = Strain exhibits a practical resistance to:; conditions: cited from earlier work
[6] = test system: brown rat (Rattus norvegicus) strain Y139F; conditions: BCR resistance test; cited from earlier work
[7] = test system: brown rat VKORC1 strain Y139F; parameters: key: X = Strain exhibits a practical resistance to:; conditions: cited from earlier work
[8] = test system: brown rat (Rattus norvegicus) strain Y139C; conditions: BCR resistance test; cited from earlier work
[9] = test system: brown rat (Rattus norvegicus) strain L120Q Hampshire; conditions: BCR resistance test; cited from earlier work
[10] = test system: resistant rat strain "Westphalia" (VKORC1 Y139C); experiment: Laboratory feeding tests with single anticoagulants; type: in vivo; conditions: feed baits with one active ingredient
Source text: The resistant rat strain “Westphalia”, characterized by the VKORC1 polymorphism Y139C, is resistant to the second-generation anticoagulants bromadiolone and difenacoum, and also to the first-generation active ingredients. Feed baits containing one of these active ingredients in the authorized concentration are not effective against animals of this strain.

[11] = test system: brown rats of the resistant strain Y139C; experiment: Feeding experiment with brown rats of the resistant strain Y139C (Example 1); type: in vivo, brown rat; conditions: for Mortality (in words): resistant rats
Experimental: A cholecalciferol concentration of 100 mg/kg is enough to make it possible to achieve mortality rates of up to 100% (see the examples).
[…] received feed baits, as described below, over a period of 4 days. Consumption and mortality were determined afterwards. One group (6 rats, Group 1) was fed a feed bait consisting of coumatetralyl (375 mg/kg) and cholecalciferol (100 mg/kg). The other group (Group 2) was fed coumatetralyl on its own (375 mg/kg). All animals consumed the feed baits except for one animal from Group 2. Consumption was highest during the first 24 hours. On the third and fourth day, there was only little consumption. […] Two males each consumed approximately 47 mg/kg coumatetralyl and 12.5 mg/kg cholecalciferol (based on the body weight). The females consumed from 50 to 79 mg/kg coumatetralyl and from 13 to 21 mg/kg cholecalciferol (based in each case on the body weight). In Group 2, no mortality was observed, although the animals consumed 94 mg/kg coumatetralyl (mean value based on the body weight).

[12] = test system: rats caught on the farm (strain Y139C area); experiment: Blood coagulation test with coumatetralyl on rats caught on the farm; type: in vivo, rat; conditions: blood coagulation test before control
Source text: The term “resistance(s)” in the context of the invention refers to “practical resistance”, characterized in that the rodenticide in question no longer achieves sufficient biological efficacy even with proper use and good acceptance of the bait by the rodents (see also Greaves—1994, Buckle A. P. and Smith R. H. eds. “Rodent Pests and their Control”, CABI, Wallingford, Oxon, UK, pages 197-217). A person skilled in the art can make a clear and unambiguous assessment in accordance with this definition as to whether a practical resistance is present or not. In general, the degree of “resistance” can be described by specifying a resistance factor. The resistance factor (RF) is usually calculated on the basis of the lethal dose (LD50) or of the effective dose (ED50). […] LD50 and ED50 are each determined experimentally for each strain. […] Until the 1980s, RFs were determined on the basis of the LD50. This method was later replaced by blood coagulation tests (BCR resistance tests), by means of which the ED50 can be determined more accurately (Prescott et al. 2007: A standardised BCR-resistance test for all anticoagulant rodenticides. Int. J. Pest Mgt. 53 (4), 265-272). Therefore, it is preferred according to the invention that RF be calculated via the quotient formed from the ED50 of the resistant strain and of a sensitive strain considered to be the reference. […]

SMILES | Tolerance / practical resistance (in words) [1] | Practical resistance of the strain [2] | Resistance factor (RF) for bromadiolone [3] | Sensitivity of animals with VKORC1 Tyr139Cys (in words) [4] | Practical resistance of the strain [4] | Resistance in laboratory and field experiments (in words) [4] | Practical resistance of the strain [5] | Resistance factor (RF) for bromadiolone [6] | Practical resistance of the strain [7] | Resistance factor (RF) for bromadiolone [8] | Resistance factor (RF) for bromadiolone [9] | Mortality [10] | Practical resistance of the strain [1] | Mortality (in words) ([11]; cholecalciferol by itself at 100 mg/kg) | Mortality (in words) ([11]; coumatetralyl by itself) | Mortality ([11]; feed baits over 4 days, 6 rats of strain Y139C per group) | Share of rats on the farm resistant for coumatetralyl [12]
O=c1oc2ccccc2c(O)c1C(CC(O)c1ccc(-c2ccc(Br)cc2)cc1)c1ccccc1 (stereo not drawn) [bromadiolone] | no practical resistance | X | 2.7-6.9 | virtually completely insensitive | X | resistant | X | 7-9 | X | 15-17 | 10-14 | no mortality | – | – | – | – | –
O=C1c2ccccc2C(=O)C1C(=O)C(c1ccccc1)c1ccc(Cl)cc1 (stereo not drawn) [chlorophacinone, (1′-p-chlorophenyl-1′-phenyl)-2-acetylindane-1,3-dione] | – | X | – | – | X | – | X | – | X | – | – | – | X | – | – | – | –
C=C1CC[C@H](O)C/C1=C/C=C1\CCC[C@]2(C)[C@@H]([C@H](C)CCCC(C)C)CC[C@@H]12 [cholecalciferol] | – | – | – | – | – | – | – | – | – | – | – | – | – | does not cause mortality | – | – | –
O=c1oc2ccccc2c(O)c1C1CCCc2ccccc21 (stereo not drawn) [coumatetralyl, 3-(1′,2′,3′,4′-tetrahydro-1′-naphthyl)-4-hydroxycoumarin] | – | X | – | virtually completely insensitive | X | – | X | – | X | – | – | no mortality | X | – | does not cause mortality | no mortality | approximately 46%
O=c1oc2ccccc2c(O)c1C1CC(c2ccc(-c3ccccc3)cc2)Cc2ccccc21 (stereo not drawn) [difenacoum, 3-(3′-paradiphenylyl-1′,2′,3′,4′-tetrahydro-1′-naphthyl)-4-hydroxycoumarin] | – | X | – | virtually completely insensitive | X | resistant | – | – | – | – | – | – | – | – | – | – | –
CC(=O)CC(c1ccccc1)c1c(O)c2ccccc2oc1=O (stereo not drawn) [warfarin, (1-phenyl-2-acetyl)-3-ethyl-4-hydroxycoumarin] | somewhat more tolerant | X | – | virtually completely insensitive | X | – | X | – | X | – | – | – | X | – | – | – | –

Source: patent US20180027813A1, “Use of an agent to control resistant rodents” (priority 2015, published 2018)
